Data taken from patent publication US20240116985A1, “STAPLED PEPTIDES AND METHODS THEREOF” (priority 2020, published 2024).

Target: T1, full-length beta-Catenin (Uniprot ID P35222) (Homo sapiens, UniProt P35222)
T1 construct: 10 nM full-length beta-Catenin (Uniprot ID P35222)
T1 sequence (P35222 1-781): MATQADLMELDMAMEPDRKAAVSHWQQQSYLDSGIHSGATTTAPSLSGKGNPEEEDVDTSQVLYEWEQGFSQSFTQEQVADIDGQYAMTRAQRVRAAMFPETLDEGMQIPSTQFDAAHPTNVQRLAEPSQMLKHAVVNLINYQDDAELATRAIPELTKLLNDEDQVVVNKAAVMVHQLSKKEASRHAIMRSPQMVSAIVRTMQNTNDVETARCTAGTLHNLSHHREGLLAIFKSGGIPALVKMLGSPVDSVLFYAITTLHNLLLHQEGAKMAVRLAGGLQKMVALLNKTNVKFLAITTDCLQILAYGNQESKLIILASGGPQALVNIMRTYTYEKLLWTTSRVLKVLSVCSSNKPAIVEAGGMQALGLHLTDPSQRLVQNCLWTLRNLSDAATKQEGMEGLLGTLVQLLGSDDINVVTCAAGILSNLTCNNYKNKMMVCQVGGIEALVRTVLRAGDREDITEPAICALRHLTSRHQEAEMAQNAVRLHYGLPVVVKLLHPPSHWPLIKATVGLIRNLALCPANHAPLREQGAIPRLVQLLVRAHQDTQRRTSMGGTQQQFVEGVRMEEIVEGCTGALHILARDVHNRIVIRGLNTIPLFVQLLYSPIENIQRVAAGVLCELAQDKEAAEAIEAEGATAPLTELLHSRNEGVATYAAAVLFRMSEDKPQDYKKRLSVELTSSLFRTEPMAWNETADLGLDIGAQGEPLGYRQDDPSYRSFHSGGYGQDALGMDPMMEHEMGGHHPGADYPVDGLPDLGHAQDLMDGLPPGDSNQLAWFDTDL
Test: Fluorescence polarization IC50 (beta-catenin / 5FAM-TCF4 10-53 competition)
Format: binding
Settings: fluorescence polarization; read-out: beta-Catenin FP IC50

Compound	IC50 [nM]
CC(=O)N1CCC[C@]12CC=CCCCC1(CCCC=CCCCOC(=O)N3CC[C@@](C(=O)N[C@@H](Cc4ccsc4)C(=O)N[C@@H](Cc4csc5ccccc45)C(=O)N[C@@H](CCC(N)=O)C(N)=O)(C3)NC(=O)[C@H](CC(N)=O)NC(=O)[C@H](Cc3ccccc3)NC(=O)[C@H](C)NC(=O)[C@H](C)NC(=O)[C@H](CN(CC(=O)O)CC(F)(F)F)NC(=O)[C@H](CC(=O)O)NC1=O)NC(=O)[C@H](CC(C)(C)C)NC(=O)[C@H](CC(=O)O)N(C)C2=O (stereo partly drawn) [I-1162, Ac-PL3-NMeD-Npg-B5-Asp-TfeGA-Ala-Ala-Phe-Asn-PyrS2-3Thi-BztA-Gln-NH2]	1530
CC(=O)N1CCC[C@]12CC=CCCCC1(CCCC=CCCCCCC[C@@](C)(C(=O)N[C@@H](Cc3ccsc3)C(=O)N[C@@H](Cc3csc4ccccc34)C(=O)N[C@@H](CCC(N)=O)C(N)=O)NC(=O)[C@H](CC(N)=O)NC(=O)[C@H](Cc3ccccc3)NC(=O)[C@H](C)NC(=O)[C@H](C)NC(=O)[C@H](CC(=O)O)NC(=O)[C@H](CC(=O)O)NC1=O)NC(=O)[C@H](CC(C)(C)C)NC(=O)[C@H](CC(=O)O)N(C)C2=O (stereo partly drawn) [I-1165, Ac-PL3-NMeD-Npg-B5-Asp-Asp-Ala-Ala-Phe-Asn-S8-3Thi-BztA-Gln-NH2]	722
CC(=O)N1CCC[C@]12CC=CCCCC1(CCCC=CCCCOC(=O)N3CC[C@@](C(=O)N[C@@H](Cc4ccsc4)C(=O)N[C@@H](Cc4csc5ccccc45)C(=O)N[C@@H](CCC(N)=O)C(N)=O)(C3)NC(=O)[C@H](CC(N)=O)NC(=O)[C@H](Cc3ccccc3)NC(=O)[C@H](C)NC(=O)[C@H](C)NC(=O)[C@H](CC(=O)O)NC(=O)[C@H](CC(C)C)NC1=O)NC(=O)[C@H](CC(C)(C)C)NC(=O)[C@H](CC(=O)O)NC2=O (stereo partly drawn) [I-1212, Ac-PL3-Asp-Npg-B5-Leu-Asp-Ala-Ala-Phe-Asn-PyrS2-3Thi-BztA-Gln-NH2]	8660
CC(=O)N1CCC[C@]12CC=CCCCC1(CCCC=CCCCOC(=O)N3CC[C@@](C(=O)N[C@@H](Cc4ccsc4)C(=O)N[C@@H](Cc4csc5ccccc45)C(=O)N[C@@H](CCC(N)=O)C(N)=O)(C3)NC(=O)[C@H](CC(N)=O)NC(=O)[C@H](Cc3ccccc3)NC(=O)[C@H](C)NC(=O)[C@H](C)NC(=O)[C@H](CC(=O)O)NC(=O)[C@H](CC(=O)O)NC1=O)NC(=O)[C@H](CC(C)(C)C)NC(=O)[C@H](CO)NC2=O (stereo partly drawn) [I-1222, Ac-PL3-Ser-Npg-B5-Asp-Asp-Ala-Ala-Phe-Asn-PyrS2-3Thi-BztA-Gln-NH2]	511
CC(=O)N1CCC[C@]12CC=CCCCC1(CCCC=CCCCOC(=O)N3CC[C@@](C(=O)N[C@@H](Cc4ccsc4)C(=O)N[C@@H](Cc4csc5ccccc45)C(=O)N[C@@H](CCC(N)=O)C(N)=O)(C3)NC(=O)[C@H](CC(C)C)NC(=O)[C@H](Cc3ccccc3)NC(=O)[C@H](C)NC(=O)[C@H](C)NC(=O)[C@H](CC(=O)O)NC(=O)[C@H](CC(=O)O)NC1=O)NC(=O)[C@H](CC(C)(C)C)NC(=O)[C@H](CO)NC2=O (stereo partly drawn) [I-1223, Ac-PL3-Ser-Npg-B5-Asp-Asp-Ala-Ala-Phe-Leu-PyrS2-3Thi-BztA-Gln-NH2]	550
CC(=O)N1CCC[C@]12CC=CCCCC1(CCCC=CCCCOC(=O)N3CC[C@@](C(=O)N[C@@H](Cc4ccsc4)C(=O)N[C@@H](Cc4csc5ccccc45)C(=O)N[C@@H](CCC(N)=O)C(N)=O)(C3)NC(=O)[C@H](CC(N)=O)NC(=O)[C@H](Cc3ccccc3)NC(=O)[C@H](C)NC(=O)[C@H](C)NC(=O)[C@H](CC(=O)O)NC(=O)[C@H](CC(=O)O)NC1=O)NC(=O)[C@H](CC(C)(C)C)NC(=O)[C@H](CCC(N)=O)NC2=O (stereo partly drawn) [I-1224, Ac-PL3-Gln-Npg-B5-Asp-Asp-Ala-Ala-Phe-Asn-PyrS2-3Thi-BztA-Gln-NH2]	389
CC(=O)N1CCC[C@]12CC=CCCCC1(CCCC=CCCCOC(=O)N3CC[C@@](C(=O)N[C@@H](Cc4ccsc4)C(=O)N[C@@H](Cc4csc5ccccc45)C(=O)N[C@@H](CCC(N)=O)C(N)=O)(C3)NC(=O)[C@H](CC(C)C)NC(=O)[C@H](Cc3ccccc3)NC(=O)[C@H](C)NC(=O)[C@H](C)NC(=O)[C@H](CC(=O)O)NC(=O)[C@H](CC(=O)O)NC1=O)NC(=O)[C@H](CC(C)(C)C)NC(=O)[C@H](CCC(N)=O)NC2=O (stereo partly drawn) [I-1225, Ac-PL3-Gln-Npg-B5-Asp-Asp-Ala-Ala-Phe-Leu-PyrS2-3Thi-BztA-Gln-NH2]	305
CC(=O)N1CCC[C@]12CC=CCCCC1(CCCC=CCCCOC(=O)N3CC[C@@](C(=O)N[C@@H](Cc4ccsc4)C(=O)N[C@@H](Cc4csc5ccccc45)C(=O)N[C@@H](CCC(N)=O)C(N)=O)(C3)NC(=O)[C@H](CC(N)=O)NC(=O)[C@H](Cc3ccccc3)NC(=O)[C@H](C)NC(=O)[C@H](C)NC(=O)[C@H](CC(=O)O)NC(=O)[C@H](CC(=O)O)NC1=O)NC(=O)[C@H](CC(C)(C)C)NC(=O)[C@H](CC(C)C)NC2=O (stereo partly drawn) [I-1226, Ac-PL3-Leu-Npg-B5-Asp-Asp-Ala-Ala-Phe-Asn-PyrS2-3Thi-BztA-Gln-NH2]	559

These reach a lower IC50. Values come first.

IC50 [nM]	Compound
45	CC(=O)N1CCC[C@]12CC=CCCCC1(CCCC=CCCCOC(=O)N3CC[C@@](C(=O)N[C@@H](Cc4ccccc4Cl)C(=O)N[C@@H](Cc4csc5ccccc45)C(=O)N[C@@H](CCC(N)=O)C(N)=O)(C3)NC(=O)[C@H](CO)NC(=O)[C@H](Cc3ccccc3)NC(=O)[C@H](CC(C)C)NC(=O)[C@H](C)NC(=O)[C@H](CC(=O)O)NC(=O)[C@H](CC(=O)O)NC1=O)NC(=O)[C@H](Cc1ccccc1)NC(=O)[C@H](CC(=O)O)NC2=O (stereo partly drawn) [I-1154, Ac-PL3-Asp-Phe-B5-Asp-Asp-Ala-Leu-Phe-Ser-PyrS2-2C1F-BztA-Gln-NH2]
60	CC(=O)N1CCC[C@]12CC=CCCCC1(CCCC=CCCCOC(=O)N3CC[C@@](C(=O)N[C@@H](Cc4ccccc4Cl)C(=O)N[C@@H](Cc4csc5ccccc45)C(=O)N[C@@H](CCC(N)=O)C(N)=O)(C3)NC(=O)[C@H](CO)NC(=O)[C@H](Cc3ccccc3)NC(=O)[C@H](CC(C)C)NC(=O)[C@H](CC(C)C)NC(=O)[C@H](CC(=O)O)NC(=O)[C@H](CC(=O)O)NC1=O)NC(=O)[C@H](Cc1ccccc1)NC(=O)[C@H](CC(=O)O)NC2=O (stereo partly drawn) [I-1155, Ac-PL3-Asp-Phe-B5-Asp-Asp-Leu-Leu-Phe-Ser-PyrS2-2C1F-BztA-Gln-NH2]
100	CC(=O)N1CCC[C@]12CC=CCCCC1(CCCC=CCCCOC(=O)N3CC[C@@](C(=O)N[C@@H](Cc4ccsc4)C(=O)N[C@@H](Cc4csc5ccccc45)C(=O)N[C@@H](CCC(N)=O)C(N)=O)(C3)NC(=O)[C@H](CC(N)=O)NC(=O)[C@H](Cc3ccccc3)NC(=O)[C@H](C)NC(=O)[C@H](C)NC(=O)[C@H](CC(=O)O)NC(=O)[C@H](CC(=O)O)NC1=O)NC(=O)[C@H](CC(C)(C)C)NC(=O)[C@H](CCO)NC2=O (stereo partly drawn) [I-1228, Ac-PL3-Hse-Npg-B5-Asp-Asp-Ala-Ala-Phe-Asn-PyrS2-3Thi-BztA-Gln-NH2]
134	CC(=O)N1CCC[C@]12CC=CCCCC1(CCCC=CCCCOC(=O)N3CC[C@@](C(=O)N[C@@H](Cc4ccsc4)C(=O)N[C@@H](Cc4csc5ccccc45)C(=O)N[C@@H](CCC(N)=O)C(N)=O)(C3)NC(=O)[C@H](CC(C)C)NC(=O)[C@H](Cc3ccccc3)NC(=O)[C@H](C)NC(=O)[C@H](C)NC(=O)[C@H](CC(=O)O)NC(=O)[C@H](CC(=O)O)NC1=O)NC(=O)[C@H](CC(C)(C)C)NC(=O)[C@H](CCO)NC2=O (stereo partly drawn) [I-1229, Ac-PL3-Hse-Npg-B5-Asp-Asp-Ala-Ala-Phe-Leu-PyrS2-3Thi-BztA-Gln-NH2]
